Measured values from patent US20030212115A1, “Remedies for inflammatory bowel diseases” (priority 2000, published 2003).

Assays:
[1] = tested on: picrylsulfonic acid (TNBS)-caused colitis; experiment: Picrylsulfonic acid (TNBS)-caused colitis model; assay type: in vivo, Syrian strain male hamster; settings: for area of the ulcer: once a day before cause, then twice a day, anatomized 5 days later, FIG. 3; for amount of the haemoglobin (index of the enteric hemorrhage): supernatant of washing of large intestine, 5 days later, FIG. 4
Experimental: (2) Picrylsulfonic Acid (TNBS)-Caused Colitis Model.
After 90 mg/ml of TNBS/isotonic solution (with 15 vol % ethanol) liquor (0.1 ml/body) is injected from anus of Syrian strain male hamster (7 weeks of ages) into large intestine with a flexible, oral sonde for rat, colitis was caused by clipping anus for 30 minutes. Distilled water was similarly injected into a normal group.
0.5% CMC (10 ml/kg) was orally administered to the normal group and the control group, and 25, 50 and 100 mg/10 ml/kg doses of a test drug suspended into 0.5% CMC were orally administered to the group administrated test drug once a day before cause of colitis and twice a day until the day of cause before anatomy, respectively.
They were anatomized 5 days later, and large intestines of 3 cm length were sampled from anus. Then, these intestinals were incised, and these enterics were washed by physiological salt solution (2 ml). they were taken a picture of incised large intestines, and ulcer area (cm^2) was calculated by the image analysis. Moreover, the supernatant of washing of large intestine was supplied to the measurement of the amount of the haemoglobin (index of the amount of the enteric hemorrhage).
As a test drug, compound 34 was used as well as example (1). FIG. 3 and FIG. 4 show the results.

acetate-caused colitis = experiment: Acetate-caused colitis model; assay type: in vivo, Syrian strain male hamster; settings: for area of ulcer: three times (18 h and 1 h before, 6 h after cause of colitis), anatomized 24 hours later, FIG. 1; for amount of the haemoglobin (index of the enteric hemorrhage): three times, washing supernatant of large intestine, 24 hours later, FIG. 2
Experimental: (1) Acetate-Caused Colitis Model.
After 1% aqueous acetic acid (10 ml/kg) is injected from anus of Syrian strain male hamster (7 weeks of ages) into large intestine with a flexible, oral sonde for rat, colitis was caused by clipping anus for 30 minutes. Distilled water was similarly injected into a normal group.
0.5% CMC (10 ml/kg) was orally administered to the normal group and the control group, and 10, 30 and 100 mg/10 ml/kg of a test drug suspended into 0.5% CMC were orally administered to the group administrated test drug three times in total, 18 hours and 1 hour before cause of colitis and 6 hours after cause, respectively.
They were anatomized 24 hours later, and large intestines of 7 cm length were sampled from anus. Then, these intestinals were incised, and these enterics were washed by physiological salt solution (5 ml). they were taken a picture of incised large intestines, and ulcer area (cm^2) was calculated by the image analysis. Moreover, the washing supernatant of large intestine was supplied for the measurement of the amount of the haemoglobin (index of the amount of the enteric hemorrhage).
As a test drug, 2-[5-amino-6-oxo-2-phenyl-1,6-dihydro-1-pyrimidinyl]-N-[1-[[5-(t-butyl)-1,3,4-oxadiazole-2-yl]carbonyl]-2-methylpropyl]acetamide (Compound 34) was used. FIG. 1 and FIG. 2 show the results.

CC(C)C(NC(=O)Cn1c(-c2ccccc2)ncc(N)c1=O)C(=O)c1nnc(C(C)(C)C)o1 (centres unmarked) [compound 34, 2-[5-amino-6-oxo-2-phenyl-1,6-dihydro-1-pyrimidinyl]-N-[1-[[5-(t-butyl)-1,3,4-oxadiazole-2-yl]carbonyl]-2-methylpropyl]acetamide]
intentionally suppressed: area of the ulcer ([1]; 50 mg/kg orally) | amount of the haemoglobin (index of the enteric hemorrhage) ([1]; 50 mg/kg orally) | area of the ulcer ([1]; 100 mg/kg orally) | amount of the haemoglobin (index of the enteric hemorrhage) ([1]; 100 mg/kg orally) | area of ulcer (acetate-caused colitis; 30 mg/kg orally) | amount of the haemoglobin (index of the enteric hemorrhage) (acetate-caused colitis; 30 mg/kg orally) | area of ulcer (acetate-caused colitis; 100 mg/kg orally) | amount of the haemoglobin (index of the enteric hemorrhage) (acetate-caused colitis; 100 mg/kg orally)
